# Test results taken from ChEMBL document CHEMBL3739371, “Small molecules enhance functional O-mannosylation of Alpha-dystroglycan” (Bioorg Med Chem, 2015).
# Target: T1, Dystroglycan 1 (Mus musculus) (UniProt Q62165)
# T1 sequence (whole entry): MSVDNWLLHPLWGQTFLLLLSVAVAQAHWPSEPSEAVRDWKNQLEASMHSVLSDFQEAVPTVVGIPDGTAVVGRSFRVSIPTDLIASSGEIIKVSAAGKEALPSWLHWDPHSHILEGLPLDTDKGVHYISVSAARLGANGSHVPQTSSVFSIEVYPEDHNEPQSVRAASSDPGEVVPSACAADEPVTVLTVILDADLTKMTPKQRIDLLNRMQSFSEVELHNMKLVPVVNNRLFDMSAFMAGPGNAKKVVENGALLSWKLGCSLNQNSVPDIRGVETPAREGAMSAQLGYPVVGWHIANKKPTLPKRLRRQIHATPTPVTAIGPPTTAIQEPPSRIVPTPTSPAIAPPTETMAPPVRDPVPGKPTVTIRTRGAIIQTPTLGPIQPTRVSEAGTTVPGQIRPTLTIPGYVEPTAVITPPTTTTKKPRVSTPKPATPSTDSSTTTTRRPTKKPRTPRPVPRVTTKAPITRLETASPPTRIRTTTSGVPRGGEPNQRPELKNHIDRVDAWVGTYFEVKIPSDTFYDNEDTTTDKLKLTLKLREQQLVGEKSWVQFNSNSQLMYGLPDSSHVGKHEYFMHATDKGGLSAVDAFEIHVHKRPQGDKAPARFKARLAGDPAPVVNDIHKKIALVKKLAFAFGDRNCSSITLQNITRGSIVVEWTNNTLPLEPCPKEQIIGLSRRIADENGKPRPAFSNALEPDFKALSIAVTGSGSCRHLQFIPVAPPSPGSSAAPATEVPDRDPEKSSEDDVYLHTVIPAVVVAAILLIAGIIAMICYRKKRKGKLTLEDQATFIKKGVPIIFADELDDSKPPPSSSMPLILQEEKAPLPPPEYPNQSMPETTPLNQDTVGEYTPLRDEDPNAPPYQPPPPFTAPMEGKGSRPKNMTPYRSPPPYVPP
# Experiment: Increase of functional O-mannosylation of alpha-dystroglycan in mouse C2C12 cells expressing LARGE at 10 uM after 48 hrs by alpha-screen assay relative to control
# Format: cell-based
row,SMILES,Activity [%]
1,c1csc(Cn2nnnc2CN2CCN(c3nc4ccccc4s3)CC2)c1,37
2,CCC(c1nnnn1Cc1cccs1)N1CCN(c2nc3ccccc3s2)CC1 (configuration not stated),56

# Target: T2, Dystroglycan (Cricetulus griseus) (UniProt G3H8F4)
# T2 sequence (whole entry): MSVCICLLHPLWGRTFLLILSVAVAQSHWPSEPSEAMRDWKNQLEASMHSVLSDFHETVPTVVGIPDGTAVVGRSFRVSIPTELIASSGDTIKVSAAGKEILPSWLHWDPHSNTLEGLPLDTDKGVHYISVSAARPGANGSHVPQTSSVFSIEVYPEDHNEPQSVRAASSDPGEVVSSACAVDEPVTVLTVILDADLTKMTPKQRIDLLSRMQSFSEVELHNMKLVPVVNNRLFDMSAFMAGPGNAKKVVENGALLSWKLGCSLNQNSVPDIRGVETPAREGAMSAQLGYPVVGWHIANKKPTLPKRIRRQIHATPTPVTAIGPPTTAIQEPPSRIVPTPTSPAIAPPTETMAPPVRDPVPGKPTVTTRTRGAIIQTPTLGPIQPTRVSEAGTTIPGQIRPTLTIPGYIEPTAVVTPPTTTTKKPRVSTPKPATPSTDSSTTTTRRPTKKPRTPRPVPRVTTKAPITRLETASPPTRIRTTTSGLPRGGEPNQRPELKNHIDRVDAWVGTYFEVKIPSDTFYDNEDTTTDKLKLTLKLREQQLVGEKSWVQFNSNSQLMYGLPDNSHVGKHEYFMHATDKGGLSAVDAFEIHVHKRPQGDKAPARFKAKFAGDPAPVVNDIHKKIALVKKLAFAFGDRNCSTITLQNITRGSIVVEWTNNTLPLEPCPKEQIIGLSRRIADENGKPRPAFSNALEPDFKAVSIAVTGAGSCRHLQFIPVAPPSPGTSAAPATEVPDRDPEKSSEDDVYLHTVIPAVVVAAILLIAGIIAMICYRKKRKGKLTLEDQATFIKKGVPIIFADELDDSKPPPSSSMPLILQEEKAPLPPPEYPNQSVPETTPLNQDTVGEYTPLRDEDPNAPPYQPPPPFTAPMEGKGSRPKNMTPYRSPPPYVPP
# Experiment: Increase of functional O-mannosylation of alpha-dystroglycan in Chinese hamster pro5 cells expressing LARGE after 48 hrs by alpha-screen assay
# Format: cell-based
row,SMILES,EC1.5 [µM]
1,CCC(c1nnnn1Cc1cccs1)N1CCN(c2nc3c(F)cccc3s2)CC1 (configuration not stated),4.9
2,CCC(c1nnnn1Cc1cccs1)N1CCN(c2nc3cc([N+](=O)[O-])cc(F)c3s2)CC1 (configuration not stated),25
3,CCC(c1nnnn1Cc1cccs1)N1CCN(c2nc3ccc(NC(=O)c4ccccc4C)cc3s2)CC1 (configuration not stated),> 64
4,CCC(c1nnnn1Cc1cccs1)N1CCN(c2nc3ccc(C(=O)O)cc3s2)CC1 (configuration not stated),19
5,CC(C)n1nnnc1CN1CCN(c2nc3ccccc3s2)CC1,> 64
6,CCC(c1nnnn1Cc1cccs1)N1CCN(c2nc3cc(N)ccc3s2)CC1 (configuration not stated),3.4
7,CCC(c1nnnn1Cc1cccs1)N1CCN(c2nc3ccc(NC(=O)CCCC[C@@H]4SC[C@@H]5NC(=O)N[C@@H]54)cc3s2)CC1 (some centres not stated),4.3
8,CCC(c1nnnn1Cc1cccs1)N1CCN(c2nc3ccc(N)cc3s2)CC1 (configuration not stated),11
9,CCC(c1nnnn1Cc1cccs1)N1CCN(Cc2nc3ccccc3s2)CC1 (configuration not stated),64
10,COc1ccc(Cn2nnnc2CN2CCN(c3nc4ccccc4s3)CC2)cc1,> 64
11,CCC(c1nnnn1Cc1cccs1)N1CCN(c2nc3cccc(Br)c3s2)CC1 (configuration not stated),22
12,CCC(c1nnnn1Cc1cccs1)N1CCN(c2nc3ccc(C)cc3s2)CC1 (configuration not stated),15
13,CCC(c1nnnn1Cc1cccs1)N1CCN(c2nc3cc(F)ccc3s2)CC1 (configuration not stated),> 64
14,Fc1ccc(Cn2nnnc2CN2CCN(c3nc4ccccc4s3)CC2)cc1,> 64
15,CCC(c1cnnn1Cc1cccs1)N1CCN(c2nc3ccccc3s2)CC1 (configuration not stated),48
16,CCC(c1nnnn1-c1ccccc1)N1CCN(c2nc3ccccc3s2)CC1 (configuration not stated),> 64
17,O=C(c1nnnn1Cc1cccs1)N1CCN(c2nc3ccccc3s2)CC1,> 64
18,c1csc(Cn2nnnc2CN2CCN(c3nc4ccccc4s3)CC2)c1,8.7
19,CCC(c1nnnn1Cc1cccs1)N1CCN(c2nc3ccccc3o2)CC1 (configuration not stated),9.5
20,CCC(c1nnnn1Cc1ccco1)N1CCN(c2nc3ccccc3s2)CC1 (configuration not stated),9.5
21,CCC(c1nnnn1Cc1cccs1)N1CCN(c2nc3ccc(F)cc3s2)CC1 (configuration not stated),21
22,CCC(c1nnnn1Cc1cccs1)N1CCN(c2nc3ccc([N+](=O)[O-])cc3s2)CC1 (configuration not stated),32
23,CCC(c1nnnn1Cc1nccs1)N1CCN(c2nc3cccc(F)c3s2)CC1 (configuration not stated),43
24,CCC(c1nnnn1Cc1ccccc1)N1CCN(c2nc3ccccc3s2)CC1 (configuration not stated),> 64
25,CCC(c1nnnn1Cc1cccs1)N1CCN(c2nc3ccc(C(=O)OC)cc3s2)CC1 (configuration not stated),28

row,SMILES,EC1.5 [µM]
1,CCC(c1nnnn1Cc1cccs1)N1CCN(c2nc3c(N)cccc3s2)CC1 (configuration not stated),16
2,CCC(c1nnnn1Cc1cccs1)N1CCN(c2nc3ccc(NC(=O)c4ccccc4Cl)cc3s2)CC1 (configuration not stated),> 64
3,c1ccc2sc(N3CCN(Cc4nnnn4C4CCCC4)CC3)nc2c1,> 64
4,CCC(c1nnnn1Cc1cccs1)N1CCN(c2nc3cc([N+](=O)[O-])ccc3s2)CC1 (configuration not stated),> 64
5,CCC(c1nnnn1Cc1cccs1)N1CCN(C2=Nc3ccccc3C2)CC1 (configuration not stated),28
6,CC(c1nnnn1Cc1cccs1)N1CCN(c2nc3ccccc3s2)CC1 (configuration not stated),7.2
7,CCC(c1nnnn1Cc1cccs1)N1CCC(c2nc3ccccc3s2)CC1 (configuration not stated),9.6
8,CCC(c1nnnn1Cc1cccs1)N1CCN(c2nc3cc(OC)c(OC)c(OC)c3s2)CC1 (configuration not stated),6.5
9,c1ccc(C(c2nnnn2Cc2cccs2)N2CCN(c3nc4ccccc4s3)CC2)cc1 (configuration not stated),> 64
10,CCC(c1nnnn1Cc1cccs1)N1CCN(c2nc3c(F)cc(F)cc3s2)CC1 (configuration not stated),17
11,CCC(c1nnnn1CCc1cccs1)N1CCN(c2nc3cccc(F)c3s2)CC1 (configuration not stated),64
12,CCC(c1nnnn1Cc1cccs1)N1CCN(c2nc3ccccc3[nH]2)CC1 (configuration not stated),17
13,CC(C)CC(c1nnnn1Cc1cccs1)N1CCN(c2nc3ccccc3s2)CC1 (configuration not stated),> 64
14,CCC(c1nnnn1Cc1cccs1)N1CCN(c2nc3ccc(Cl)cc3s2)CC1 (configuration not stated),13
15,CCC(c1nnnn1Cc1cccs1)N1CCN(c2nc3cccc(C(=O)OC)c3s2)CC1 (configuration not stated),14
16,CCC(c1nnnn1Cc1cccs1)N1CCN(c2nc3cccc(F)c3s2)CC1 (configuration not stated),2.6
17,CCC(c1nnnn1Cc1cccs1)N1CCN(c2nc3ccc(OC)cc3s2)CC1 (configuration not stated),7.1
18,CCCC(c1nnnn1Cc1cccs1)N1CCN(c2nc3ccccc3s2)CC1 (configuration not stated),34
19,CCC(c1nnnn1Cc1cccs1)N1CCN(c2nc3cccc(C(F)(F)F)c3s2)CC1 (configuration not stated),25
20,CCC(c1nnnn1Cc1cccs1)N1CCN(c2nc3cccc(C(=O)O)c3s2)CC1 (configuration not stated),22
21,CCC(NCCNc1nc2cccc(F)c2s1)c1nnnn1Cc1cccs1 (configuration not stated),> 64
22,CCC(c1nnnn1Cc1cccs1)N1CCN(c2nc3cccc(O)c3s2)CC1 (configuration not stated),21
23,CCC(c1ccc(-c2nc3ccccc3s2)cc1)c1nnnn1Cc1cccs1 (configuration not stated),49
24,CCC(c1nnnn1Cc1cccs1)N1CCN(c2nc3ccc(-c4ccccc4)cc3s2)CC1 (configuration not stated),> 64
25,CCC(c1nnnn1Cc1cccs1)N1CCN(c2nc3ccccc3s2)CC1 (configuration not stated),4.6
